Laboratory results as given in US5464826A, “Method of treating tumors in mammals with 2',2'-difluoronucleosides” (Eli Lilly and Company, priority 1994, dated 1995).
In brackets after ≈: the same amount, converted by molar mass. Read-outs that look alike come from different tables or passages of the source.

What was measured:
[1] = tested on: human leukemic cells (CCRF-CEM cell line); experiment: Cytotoxicity Screen (growth inhibition); assay type: cell-based; conditions: for IC50: Homo sapiens, read-out: IC50 (concentration giving 50% growth inhibition)
From the text: The compounds represented by formula I employed in the present invention are cytostatic in that they inhibit the growth of human leukemic cells (CCRF-CEM cell line). […] T1 TABLE 1-Cytotoxicity Screen? -Compound Name?

[2] = tested on: L1210V lymphocytic leukemia; experiment: L1210V Lymphocytic Leukemia Tumor System; assay type: in vivo, mice; conditions: Experiment 1, IP; for Indefinite Survivors: 45 day survivors; for Toxic Deaths: deaths/mice in group
Description: The study testing the efficacy of these compounds against L1210V leukemia was initiated by an IP inoculation of 1×10^6 cells. Treatment was begun 24 hours after inoculation. The response to therapy was determined by comparing the mean life span of the ten treated animals to that of the ten control animals; prolongation of life in the treated animals beyond that of controls is expressed as a percentage. In the Table, column 1 gives the example number of the compound tested; column 2, the experiment number; column 3, the dose level of the compound in mg/kg; column 4, the route of administration; column 5, the dosage schedule, that is, the days on which the compound was administered to the mice; column 6, the average increase in life span of the treated mice as compared to the control mice; column 7, the toxic deaths over the number of mice in each group; and column 8, the indefinite survivors, that is, the number of 45 day survivors in each group.

[3] = tested on: X5563 plasma cell myeloma; experiment: X5563 plasma cell myeloma tumor model; assay type: in vivo, mice (C3H); conditions: 30.0 mg/kg; IP; Daily for 9 days
From the text: X5563 Myeloma--the tumor is maintained in C3H mice.
(§1) The tumor was removed from passage animals and minced into 1 to 3 mm square fragments using sterile techniques. Tumor pieces were checked for sterility using both Antibiotic Medium 1 and Brain Heart Infusion (Difco; Detroit, Mich.). Recipient mice were shaved and tumor pieces were implanted subcutaneously in the axillary region by trocar. Drug therapy on the appropriate schedule was initiated on the day after tumor implant. The compound was dissolved in saline for all experiments. All animals were weighed at the beginning and end of drug treatment. Food and water were provided ad libitum. On days 10 to 12, two dimensional measurements (width and length) of all tumors were taken using vernier calipers. Tumor weights were calculated from these measurements using the following formula:
Tumor Weight (mg)=Tumor Length (mm)×Tumor Width (mm)^2 /2
For all data, the tumor weight was rounded to the nearest tenth of a gram for analysis. No group is included in the analysis for therapeutic activity in which deaths attributable to drug toxicity exceeded 30 percent of the treated group.
In Table 3 which follows, column 1 gives the example number of the compound tested; column 2 provides the tumor system; column 3, the dose level; column 4, the route administered; column 5, the dosage schedule; column 6, the percent inhibition of the tumor; and column 7, the toxic deaths observed prior to completion of the study.

[4] = tested on: 6C3HED, CA755, P1534J, X5563; experiment: additional tumor test systems (summary statement); assay type: in vivo, mice; conditions: systems include 6C3HED
From the text: These systems include the 6C3HED lymphosarcoma, also known as the Gardner lymphosarcoma (6C3HED); the CA-755 adenocarcinoma (CA755); the P1534J lymphatic leukemia (P1534J); and the X5563 plasma cell myeloma (X5563). Each of these systems is described in detail below.
as §1, with “formula: […]” for “formula:”

Cc1cn(C2O[C@H](CO)[C@@H](O)C2(F)F)c(=O)nc1N (stereo partly shown) [Example 4, 1-(4-Amino-5-methyl-2-oxo-1H-pyrimidin-1-yl)-2-desoxy-2,2-difluororibose]
IC50 [1]: 0.3 µg/mL (≈ 1.08 µM)

Nc1ccn(C2O[C@H](CO)[C@H](O)C2(F)F)c(=O)n1 (stereo partly shown) [Example 5, 1-(4-Amino-2-oxo-1H-pyrimidin-1-yl)-2-desoxy-2,2-difluoroxylose]
Percent Increase Life Span ([2]; 30.0 mg/kg, Daily for 10 days): 57%
Indefinite Survivors ([2]; 30.0 mg/kg, Daily for 10 days): 0
Toxic Deaths ([2]; 30.0 mg/kg, Daily for 10 days): 0/10
Percent Inhibition of Tumor [3]: 28%
Toxic Deaths [3]: 0/10
activity in additional tumor test systems (in words) [4]: demonstrated activity in additional tumor test systems
IC50 ([1]; CCRF-CEM): 0.3 µg/mL (≈ 1.14 µM)

Nc1nc2c(ncn2C2O[C@H](CO)[C@@H](O)C2(F)F)c(=O)[nH]1 (stereo partly shown) [1-(2-amino-6-oxo-1H,9H-purin-9-yl)-2-desoxy-2,2-difluororibose]
IC50 [1]: 0.1 µg/mL (≈ 0.33 µM)

Nc1ncnc2c1ncn2[C@@H]1O[C@H](CO)[C@@H](O)C1(F)F [β-1-(6-amino-9H-purin-9-yl)-2-desoxy-2,2-difluororibose]
IC50 [1]: 0.5 µg/mL (≈ 1.74 µM)

O=c1ccn(C2O[C@H](CO)[C@@H](O)C2(F)F)c(=O)[nH]1 (stereo partly shown) [Example 3, 1-(2,4-Dioxo-1H, 3H-pyrimidin-1-yl)-2-desoxy-2,2-difluororibose]
IC50 [1]: 5.4 µg/mL (≈ 20.4 µM)

O=c1[nH]c(=O)c2ncn(C3O[C@H](CO)[C@@H](O)C3(F)F)c2[nH]1 (stereo partly shown) [1-(2,6-dioxo-1H,3H,9H-purin-9-yl)-2-desoxy-2,2-difluororibose]
IC50 [1]: 0.3 µg/mL (≈ 0.986 µM)

1-(6-Amino-9H-purin-9-yl)-2-desoxy-2,2-difluororibose [Example 6]
Percent Increase Life Span ([2]; 100.0 mg/kg, Daily for 9 days): 16%
Indefinite Survivors ([2]; 100.0 mg/kg, Daily for 9 days): 0
Toxic Deaths ([2]; 100.0 mg/kg, Daily for 9 days): 0/7
Percent Increase Life Span ([2]; 200.0 mg/kg, Daily for 9 days): 18%
Indefinite Survivors ([2]; 200.0 mg/kg, Daily for 9 days): 0
Toxic Deaths ([2]; 200.0 mg/kg, Daily for 9 days): 0/7

Nc1ncnc2c1ncn2[C@H]1O[C@H](CO)[C@@H](O)C1(F)F [α-1-(6-amino-9H-purin-9-yl)-2-desoxy-2,2-difluororibose]
IC50 [1]: 6.9 µg/mL (≈ 24 µM)

Nc1nc(Cl)nc2c1ncn2[C@H]1O[C@H](CO)[C@@H](O)C1(F)F [α-1-(2-chloro-6-amino-9H-purin-9-yl)-2-desoxy-2,2-difluororibose]
IC50 [1]: > 20 µg/mL

Nc1nc(Cl)nc2c1ncn2[C@@H]1O[C@H](CO)[C@@H](O)C1(F)F [β-1-(2-chloro-6-amino-9H-purin-9-yl)-2-desoxy-2,2-difluororibose]
IC50 [1]: 0.4 µg/mL (≈ 1.24 µM)

1-(2,6-diamino-9H-purin-9-yl)-2-desoxy-2,2-difluororibose
IC50 (concentration giving 50% growth inhibition) [1]: 0.075 µg/mL
